Laboratory results reported in patent US7553826B2, “Cytarabine monophosphate prodrugs” (Metabasis Therapeutics, Inc., priority 2002, dated 2009).

Tests used:
[1] = Plasma stability in human plasma; format: in vitro ADME
Protocol: Male- and female-pooled human plasma (Bioreclamation Inc., Hickville, N.Y., catalog # […], lot # BRH02236) containing heparin as anticoagulant, pH of all plasma aliquots was 8.3. […] Samples (100 μL) were quenched with 1 mL of acetonitrile. […] Samples were resuspended in 120 μL of mobile phase buffer before HPLC analysis. For plasma samples, 40 μL or 50 μL samples were injected onto the column described in Example E with mobile phase buffer, 20 mM potassium phosphate buffer, pH 6.2 (Fisher Scientific, catalog # P261-1, various lots). All other HPLC analysis was performed as described in Example E.

[2] = Liver araCTP and liver targeting with continuous i.v. infusion in rats; settings: rat, in vivo, iv
Description: A saline filled blunt PE-50 tubing catheter (Intramedic, Becton Dickinson, Sparks, Md.) was inserted into the jugular vein, exteriorized between the scapulae and connected to a swivel-tethering constant infusion system (Lomir Biomedical, Inc., Malone, N.Y. and Harvard Apparatus, Inc., South Natick, Mass.). The tubing was filled with heparinized saline and sealed, and the animals allowed to recover for one to seven days.
After the various durations of infusion the animals were anesthetized by intra-catheter injections of the anesthetic mix described above. Blood samples were obtained via cardiac puncture using a 23-gauge needle attached to a heparin coated 3 cc syringe.
(§1) In those studies, liver, plasma and bone marrow samples were obtained at necropsy to evaluate liver targeting.
(§2) Results are expressed as mean±standard error of the mean. When appropriate, AUC was calculated from time zero to the last time-point of the study. Liver targeting indices (LTIs) were calculated by dividing the liver araCTP AUC by the AUC for plasma araC (plasma LTI) or by the AUC for bone marrow araCTP (bone marrow LTI) for each compound. For the continuous infusion studies, the steady state araCTP levels were divided by the steady state plasma araC levels.

[3] = Mouse 5-day safety pharmacology; format: in vivo; settings: mice
Protocol: AraC was purchased from Sigma Chemical Co. (St. Louis, Mo., catalog # C1768, lot # 39H5962). Compound C and araC were dissolved in sterile physiological saline. Stock solutions were prepared daily from pre-weighed drug. All but the highest concentrations were prepared by diluting the stock solutions using additional sterile saline. Any drug not used immediately was refrigerated and used within 24 hours. All prodrugs were dosed in cytarabine molar equivalents (CE).
Male NIH Swiss Webster mice (25 to 33 g body weight, Harlan Sprague Dawley, Indianapolis, Ind.) were injected i.p. with Compound C, araC or vehicle once a day on days 0-4, approximately 3 to 4 hours following the beginning of the vivarium light cycle. Doses for Compound C were 1000, 300, 100 and 30-mg/kg nucleoside equivalents/day (equal to 1848, 554, 185 and 55.4 mg/kg/day) whereas araC was administered at 100, 30, 10 and 3 mg/kg/day. The vehicle was saline. Body weights were recorded on days 0-4 immediately prior to compound administration and on day 5 prior to sacrifice. All mice were sacrificed on day 5 (23-25 hours following the last i.p. dose) by exsanguination under halothane anesthesia, and subsequent cervical dislocation. The blood from each animal was analyzed for blood chemistry and hematology parameters as described in Example H. Livers were excised and fixed in neutral-buffered 10% formalin, and bone marrow was flushed from the right femur using 1 ml PBS without calcium or magnesium and nucleated cell counts measured as in Example H.
EDTA-treated blood samples were submitted to LabCorp (LabCorp, San Diego, Calif.) for hematology analysis including erythrocyte and platelet numbers, hemoglobin, and hematocrit. Serum chemistry analysis was also performed by LabCorp. Tissue specimens from mice treated with vehicle or 100 mg/kg araC or 1000 mg/kg CE Compound C were coded and shipped in formalin to Comparative Biosciences (Mountain View, Calif.) for preparation of hematoxylin/eosin-stained tissue sections and histopathology evaluation. Specimen codes for the histopathology studies were: #1-7, Compound C 1000 mg/kg/day; #33-40, araC 100 mg/kg/day; #65-72, Saline vehicle.
Results are expressed as mean±standard error for 5-8 animals per dose group. For selected hematology parameters, data for each animal were also presented as a % of the mean of the vehicle group. Statistical analysis was performed by one-way ANOVA followed by Dunnett's post-hoc test for differences between a control group and multiple dose groups. A p-value of less than 0.05 was considered statistically significant.

[4] = Single dose i.p. bolus liver levels / liver targeting in mice; settings: administered intraperitoneally
Protocol: At specified times post injection, mice were anesthetized and exsanguinated via cardiac puncture. The whole liver was removed, and snap-frozen in liquid nitrogen, and homogenized using a Polytron homogenizer PT 10/35 (Brinkmann Instruments, Westbury, N.Y.) in 3 volumes of 10% (v/v) perchloric acid (PCA). After a 5 min centrifugation at 2,500×g, 1 mL of supernatant was neutralized using 0.3 mL 3 M KOH/3 M KHCO3 and mixed thoroughly. Samples were then centrifuged for 5 minutes and resulting supernatants were treated with periodate in order to remove endogenous ribonucleotides which otherwise might interfere with araCTP detection. […] Resulting samples were analyzed by HPLC as described below.
To measure bone marrow araCTP, the bone marrow samples were flushed from the marrow cavities of femurs with 1.2 ml saline into pre-weighed Eppendorf tubes. After centrifugation for 20-30 seconds (Eppendorf microfuge, 14,000 rpm) and removal of the supernatant, 12 volumes of 3% PCA (v/v) were added to the bone marrow cell pellets. Samples were then vortexed until the pellet was well dissolved and centrifuged as above for 10 min. Ninety μL of extracted supernatant was neutralized to pH 7-8 using 30 μL 1 M KOH/1 M KHCO3 and again centrifuged. Resulting supernatants were periodate-treated as above.
Samples (50 μL) were injected onto the column in 70% 10 mM ammonium phosphate buffer and 30% 1 M ammonium phosphate buffer, both at pH 3.5 and containing 6% ethanol. […] A standard curve was prepared by adding known amounts of araCTP into PCA extracts from control liver or bone marrow prior to neutralizing, and preparing HPLC samples accordingly.
To obtain plasma, blood was transferred to heparinized micro-collection tubes and centrifuged in an Eppendorf microfuge at 14,000 rpm for 2 minutes. Resulting plasma was collected, placed on dry ice, and subsequently stored at −20° C. On the day of analysis, proteins were precipitated by adding 1 mL acetonitrile to 100 μL of plasma. After 10 min centrifugation (Eppendorf microfuge, 14,000 rpm), the supernatant was removed and dried in a Savant SpeedVac Plus SC110A. Samples were reconstituted with 110 μL of mobile phase buffer (20 mM KH2PO4, pH 4.5), sonicated for 5 min, and centrifuged for 30 seconds. […] AraC and prodrugs were detected by absorbance at 280 nm and quantitated using standard curves obtained with spiked plasma samples processed as above.
Results are expressed as mean±standard error of the mean. Data were analyzed by repeated measures ANOVA, followed by the Tukey HSD post-hoc test for comparisons at individual time points when appropriate. A p-value of less than 0.05 was considered statistically significant. Dotted lines in figures indicate LOQ (limit of quantitation) using the indicated HPLC method.
as §1, §2

Q: Which “half-lives in human plasma” value [1] does the source give for `Nc1ccn([C@@H]2O[C@H](COP3(=O)OCCC(c4ccncc4)O3)[C@@H](O)[C@@H]2O)c(=O)n1` (relative stereo) [Compound C, 2(1H)-Pyrimidinone, 4-amino-1-[5-O-cis-[2-oxido-4-(4-pyridinyl)-1,3,2-dioxaphosphorinan-2-yl]-β-D-arabinofuranosyl]] here?
A: The value was > 1 days.

Q: What about the “reduction of peripheral exposure (liver targeting)” value [2] of the same compound?
A: Its value is ~10 fold.

Q: And the “histopathology of liver, kidney and small intestine” value ([3]; 100 mg/kg araC or 1000 mg/kg CE Compound C)?
A: Its value is “no toxicologically relevant histopathologic changes”.

Q: What about the hepatotoxicity ([3]; 5-day repeated dose) of the same compound?
A: Its hepatotoxicity is “No hepatotoxicity was observed”.

Q: And the “safety relative to araC in terms of hematologic endpoints” value ([3]; 5-day repeated dose)?
A: The value was ≥ 30 fold.

Q: What about the “red blood cell parameters (erythrocyte numbers, hematocrit, hemoglobin)” value ([3]; 5 days i.p., araC 30 and 100 mg/kg/day) of the same compound?
A: The value was “similarly affected these parameters, but at ten-fold higher doses”.

Q: What about the “dose required to reduce nucleated bone marrow cells, relative to araC” value ([3]; Compound C 1000 mg/kg/day of nucleoside equivalents) of the same compound?
A: The value was 30 fold.

Q: And the “PMN, mononuclear cell, or platelet numbers” value ([3]; any dose (30-1000 mg/kg/day CE) i.p. for 5 days)?
A: Its value is “did not affect”.

Q: And the “effect on body weight” value ([3]; daily i.p. 5 days, highest dose: araC 100 mg/kg/day, Compound C 1000 mg/kg/day of nucleoside equivalents)?
A: Its value is “no significant effect”.

Q: What about the Glucose ([3]; araC 30 and 100 mg/kg/day, Compound C 1000 mg/kg/day) of the same compound?
A: The Glucose was “lowered”.

Q: And the “reduction of peripheral exposure (liver targeting)” value [4]?
A: The value was ~20 fold.
